For the molecule `CCN(CC)C(=O)n1cnc(Sc2c(C)cccc2C)n1`, the melting point was in the range of 111 to 112 °C.
Then `CN(C)c1ccc2nc(-c3cccc4ccccc34)[nH]c(=O)c2c1`, with 254 to 255 °C; and `O=c1[nH]c2cc(Cl)ccc2c(=O)c2sccc12`, with over 280 °C.
Then `C=C(C(=O)c1ccc(C(=O)O)cc1)c1cc(OC)c(OC)c(-c2cccs2)c1`, with 156 to 157 °C; and `COC(=O)c1cc2cc(S(N)(=O)=O)sc2s1`, with 219 to 220 °C.
In turn, `CCCn1c(CCOC)nc2c(N)nc3cc(OC4CCN(C(=O)OC(C)(C)C)CC4)ccc3c21` yielded a melting point of 173 to 175 °C.
The molecule `Cc1c(C)c2c(c(C)c1O)CCC(C)(C1N[C@H](C(=O)O)CS1)O2` (stereo not given in full) displayed a melting point of 184 to 186 °C.
Under `N#Cc1cccc(-c2ccc3c(Cl)c[nH]c(=O)c3c2)c1` stands over 300 °C; under `CC1(C)SCCN(S(=O)(=O)c2ccc(-c3ccc(Br)cc3)cc2)C1C(=O)NO` (stereo not given), 190 to 192 °C.
Then `CCOC(=O)Nc1ccc(N2CCC(=O)CC2)cc1`, with 145 to 146 °C; and `N#Cc1cccc2c1CCCC2=O`, with over 230 °C.
`CCc1ncnc(O)c1[N+](=O)[O-]`: the melting point is 181 to 183 °C.
Under `COc1ccc(Oc2cccc(Oc3ccc4c(c3)OCO4)c2C(=O)O)cc1` stands 163 to 165 °C; under `CCCCCCCCOCC(O)COc1ccc(-n2nc3ccccc3n2)c(O)c1` (stereo not given), 51 to 55 °C; under `O=c1nc(N2CCCc3c(Br)cccc32)sc2ncccc12`, 173 to 174 °C.
Then `CCCC(=O)Nc1ccc2nc(S(N)(=O)=O)sc2c1`, with 246 to 247 °C; and `CC1=C(OCC(C)C)CCC(C)(C)C1(O)C[Si](C)(C)C` (stereo not given), with 50 °C.
As for `Cn1cccc1C(=O)C(C#N)C(=O)Nc1ccc([N+](=O)[O-])cc1` (stereo not given), the melting point was 193 to 195 °C.
Then `CNCC(O)c1cc(C(F)(F)F)nc2c(C(F)(F)F)cccc12` (stereo not given), with 158 °C; and `Oc1ccc2c(c1)COc1c-2cc2ccc(O)cc2c1-c1ccc(Cl)cc1`, with 239 to 242 °C; and `CCOCC1COc2ccc(N)cc2O1` (stereo not given), with 103 to 106 °C.
Then `Cc1ccccc1N1CCN(CCCCCC(=O)O)CC1`, with 125 °C; and `CC(C)c1c(O)cc(/C=C/c2ccccc2)cc1O`, with 140 to 142 °C; and `CCOC(=O)c1nc(-c2ccc(Cl)cc2F)cc(N)c1OCC(F)(F)F`, with 123 to 135 °C.
Then `CC(C)C[C@H](CC(=O)OC(C)(C)C)C(=O)N1C(=O)OC[C@@H]1C(C)C`, with 143 to 144 °C; and `O=c1[nH]sc2cc(Cl)ccc12`, with 271 to 272 °C.
For `O=S(=O)(Nc1nc2ncc(Cl)cn2n1)c1ccccc1Cl`, the melting point lay within 256 to 260 °C.
Under `CCC(C)Nc1c(-c2c(F)cc(F)cc2F)c(F)nc2ncncc12` (stereo not given) stands 199 °C.
`O=C1Nc2cccc(-c3cccc(C(F)(F)F)c3)c2/C1=C/c1ccc[nH]1` yielded a melting point of 197 to 198 °C.
Under `CC(=O)OC(C)(C)C(=O)Nc1c(C(=O)c2cc(C)ccn2)[nH]c2cc(Cl)ccc12` stands 222 to 223 °C.
Turning to `O=C(O)c1ccc(-c2nc(-c3ccc(Cl)cc3)cs2)cc1`, the melting point was 284 to 285 °C.
`CNC(=O)c1ccc(N2CCN(Cc3cc4c(c(OC)c3)OC(C)C(=O)N4)CC2)c(F)c1` (stereo not given) displayed a melting point of 241 to 244 °C.
Then `CC[C@@H](c1ccccc1)N(Cc1ccc(C(=O)OC)cc1)S(=O)(=O)c1ccc(F)cc1`, with 107 to 109 °C.
`O=CNCS(=O)(=O)c1ccccc1`: the melting point is 106 to 107 °C.
Molecule `OC(Cn1ccnc1)c1ccc2c(c1)Cc1ccccc1-2` (stereo not given) registered a melting point of 196 to 199 °C.
In the case of `O=C(O)c1cn(C2CC2)c2nc(N3Cc4ccccc4C3)c(F)cc2c1=O`, the melting point is over 300 °C.
`C=CCOn1cc(C(=O)NCc2ccc(Cl)cc2)c(=O)c2ccccc21` came in with a melting point of 113 to 114 °C.
`CCOC(=O)c1c(C)nc(NCCCN(C)C)c2nccnc12` registered a melting point of 55 to 57 °C.
`CCc1c(-c2ccc(O)cc2)c2cc(COCCN(C)C)c3cccc1n32`: the melting point is 141 to 143 °C.
The molecule `CC1(CNC(=O)C(F)(F)F)CN(c2c(F)cc3c(=O)c(C(=O)O)cn(C4CC4)c3c2F)C1` came in with a melting point of 232 to 237 °C.
Then `COC(=O)Cc1ccc(OCCNC(=O)C2Cc3ccccc3N2S(=O)(=O)c2ccc(-c3ccc(Cl)cc3)c(C(F)(F)F)c2)cc1` (stereo not given), with 60 °C.
Under `COc1cccc(CNC(=O)c2nc3c(cc(C)n3S(C)(=O)=O)c(=O)[nH]2)c1` stands 211 to 213 °C.
Under `CCCN(Cc1ccc(C(=O)N2CCN(c3ccccc3)CC2)cc1)C1CCc2ncsc2C1` (stereo not given) stands 70 °C.
With `Cc1ccnc(NC(=O)c2c(-c3ccc(F)cc3)c(-c3ccc(F)cc3)c(C=O)n2C(C)C)n1`, the melting point lay in the range of 173 to 175 °C.
Under `CC(O)CNc1cc(Cl)cc(NCC(C)O)c1[N+](=O)[O-]` (stereo not given) stands 170 °C; under `COC(=O)c1nc(C)[nH]c1C(=O)OC`, 138 to 140 °C; under `Cc1ccc(-c2nc3ccc(C(C)(C)CNC=O)cc3[nH]2)cc1`, 193 to 195 °C.
For the molecule `NC(=O)C(Sc1nc2cc(Cl)ccc2s1)c1ccccc1` (stereo not given), the melting point lay within 181 to 183 °C.
Under `CC1(C)C(=O)c2c(cc(OCC(=O)O)c(Cl)c2Cl)C1c1ccccc1` (stereo not given) stands 163 to 164 °C; under `CS(=O)(=O)Nc1ccc(CCC(=O)O)cc1`, 152 to 154 °C; under `CCCCCCCC[C@H](O)C(=O)O`, 70 to 72 °C.
Then `Cc1cccc2c1N(CC(=O)N1CC3CCC(CC3)C1)C(=O)C(NC(=O)Nc1cccc(CO)c1)N=C2c1ccccc1F` (stereo not given), with 188 to 202 °C; and `CC1(C)COC(=O)N1c1nc(-c2csc(C#N)c2)cs1`, with 249 to 252 °C.
With `O=C(c1ccc(I)cc1)c1ccc2noc(-c3cccc(Cl)c3)c2c1`, the melting point was 196 °C.
In turn, `NS(=O)(=O)c1ccc2c(c1)C(=O)CCC2` had a melting point of 197 to 198 °C.
`c1ccc(-c2nc(-c3ccc4cc(OCc5nnn[nH]5)ccc4c3)cs2)cc1` returned a melting point of 226 to 228 °C.
Under `CNC(=C[N+](=O)[O-])NCCCCCCCCCCCCNC(C[N+](=O)[O-])NCCSCc1ccc(CN(C)C)o1` (stereo not given) stands 78 to 80 °C; under `Oc1ccc(CCCn2ccnc2)cc1`, 158 to 160 °C.
Under `CNC(=O)N=C(NC(=O)Nc1ccc(Cl)cc1)OC` stands 169 to 171 °C; under `CC(=O)NCC1CN(c2ccc(NC=O)c(F)c2)C(=O)O1` (stereo not given), 196 to 198 °C; under `COc1cccc2c1OC(SC)C2=O` (stereo not given), 103 to 105 °C.
Molecule `Nc1cc2c(cc1C(=O)c1ccccc1Cl)CCC2` registered a melting point of 90 to 92 °C.
In turn, `CC(C)CCc1c(-c2ccc(S(N)(=O)=O)cc2)cnn(-c2ccc(F)cc2)c1=O` registered a melting point of 180 to 183 °C.
Then `COc1ccccc1OCCCc1oc(-n2cnc(-c3ccccc3)c2-c2ccccc2)nc1-c1ccc(Cl)cc1`, with 118 to 119 °C; and `CNc1ccc(-c2cnc3[nH]c(=O)n(CC4CCOCC4)c3n2)cn1`, with over 260 °C; and `COCCNC(=O)c1cccc(-c2cccc3cc(Cc4ccc(F)cc4F)sc23)c1`, with 94 to 95 °C.
Then `CCC(C)CNN(NCC(C)CC)C(=O)c1cc(NC(=O)CCl)cc(C(N)=O)c1` (stereo not given), with 160 to 162 °C; and `CCN(CC)CCNC(=O)c1cc(Cl)c(N)cc1OCCOC(C)=O`, with 101 to 102 °C; and `COc1ccc2c(c1)C(=O)c1nc(-c3ccccc3)sc1C2=O`, with 221 °C.
Take `N#Cc1ccc(C=Cc2cc(=O)c3cc(Br)ccc3o2)cc1`: the melting point was in the range of 275 to 276 °C.
Then `CN(C)C(=O)COc1ccc2c(-c3ccccc3F)noc2c1Cl`, with 116 °C.
Molecule `COc1cc2c(cc1OC)S(=O)CCC(C(=O)N1CCN(C(=O)c3cc(OC)c(OC)c(OC)c3)CC1)=C2` (stereo not given) displayed a melting point of 138 °C.
Then `C#CCOC(=O)c1ccc(O)c(O)c1`, with 127 to 129 °C.
The molecule `CCOC(=O)CO[C@H]1CC[C@H](CCN(C(=O)c2ccccc2)S(=O)(=O)c2ccc(Cl)cc2)CC1` yielded a melting point of 81 to 82 °C.
Under `CC(=O)Nc1ccc2c(c1)CCC(CO)O2` (stereo not given) stands 156 °C.
Under `COc1ccc2ccccc2c1C1OC(=O)NC1=O` (stereo not given) stands 199 to 201 °C; under `CCC(=O)c1cnc2c(OCCO)cccc2c1Nc1ccccc1C`, 174 to 176 °C; under `COc1cc(OCc2ccccn2)ccc1/C=C/C(=O)CC(=O)/C=C/c1ccc2cc[nH]c2c1`, 165 to 168 °C.
Then `O=C(c1ccc(F)cc1)C1CCN(CCCn2c(=O)sc3ccccc32)CC1`, with 83 °C; and `CCOP(=O)(CCC(OC)(C(=O)c1ccccc1)c1ccccc1)OCC` (stereo not given), with 60 to 62 °C.
In turn, `N[C@@H](CC(C(=O)O)=C1CCC1)C(=O)O` displayed a melting point of 212 to 214 °C.
Consider `CCC(O)(c1ccc(OCCCN2CCCCC2)cc1)c1cccc(Cl)c1` (stereo not given), for which the melting point fell in the range of 80 to 81 °C.
Under `O=C(Nc1ccc(Cl)cc1)N(CCCN1CCC(Cc2ccccc2)CC1)c1ccc(Cl)c(Cl)c1` stands 128 to 131 °C; under `Cc1c(C)c2c(c(C)c1NC(=O)CC(C)(C)C)C(c1ccc(C(C)C)cc1)C1(CCCC1)O2` (stereo not given), 209 to 210 °C; under `CCCn1c(=O)c2[nH]c(/C=C/c3ccc(Cl)cc3)nc2n(CCC)c1=O`, over 290 °C.
Molecule `CN(CC1CCCCN1CC(=O)N1c2ccccc2NC(=O)c2ccccc21)C1CCCCC1` (stereo not given) had a melting point of 146 to 148 °C.
Then `CN1C(=O)CC[C@]2(C)c3ccc(C(=O)Oc4ccccc4)cc3CC[C@@H]12`, with 194 to 196 °C; and `Cc1ccc(C(=O)Nc2c(NC(=O)CN(C)C)ccc3c2C(=O)c2ccccc2C3=O)cc1`, with 190 to 191 °C; and `CCc1c(OC)nc(OC)nc1C(=O)c1cc(C)cc(C=O)c1`, with 89 to 91 °C.
In the case of `Cc1ccc(CSc2nnc(-c3ccc4c(c3)CCO4)o2)cc1`, the melting point was 190 to 191 °C.
